Measurements published in patent publication US7647217B2, “Structure of the farnesoid X receptor ligand binding domain and methods of use therefor” (The Salk Institute for Biological Studies, priority 2002, dated 2010).

Tests used:
[1] = target: T1, FXR ligand-binding domain (Homo sapiens, UniProt Q96RI1); assay: FRET-based coactivator (SRC-1 peptide) binding assay; type: biochemical; conditions: for EC50: agonist mode, 8 nM GST-FXR LBD, 16 nM SRC-1 peptide, read-out: EC50 of SRC-1 peptide recruitment
T1 construct: made in house; host or cells: E. coli BL21 (DE3)
T1 sequence (Q96RI1 258-486): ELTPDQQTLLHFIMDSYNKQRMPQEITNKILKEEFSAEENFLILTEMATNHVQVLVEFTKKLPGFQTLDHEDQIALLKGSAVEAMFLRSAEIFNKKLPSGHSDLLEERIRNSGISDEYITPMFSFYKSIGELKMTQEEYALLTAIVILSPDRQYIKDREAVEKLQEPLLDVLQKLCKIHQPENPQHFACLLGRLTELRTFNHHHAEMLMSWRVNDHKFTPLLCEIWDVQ
Experimental: Increasing amounts of the compounds were added as indicated. Binding reactions contained 8 nM Europium labeled GST-FXR ligand-binding domain fusion protein and 16 nM allophycocyanin-labeled SRC-1 receptor binding peptide. Results are expressed at 1000*(665 nm/615 nm).
Standard PCR amplifications of the LBD of human FXR (residues 248 to 476) and sub-cloning techniques were used to generate pGEX Glutathione-s-transferase (GST) and pHIS8-3 (Jez et al. (2000) Dissection of malonyl-coenzyme A decarboxylation from polyketide formation in the reaction mechanism of a plant polyketide synthase. Biochemistry 39, 890-902) prokaryote protein expression vectors. DNA fragments containing hFXR aa248 to 476 were cloned into the BamHI site of pGEX-hFXR, while the cloning sites NcoI and BamHI sites were used in pHIS8-3.
To determine if the compounds identified as ligands could promote the association of FXR with co-activators in vitro, a fluorescence resonance energy transfer (FRET)-based coactivator binding assay was employed (see, for example, Makishima et al. (1999), supra; Urizar et al. (2002). A natural product that lowers cholesterol as an antagonist ligand for FXR. Science. 296(5573), 1703-6). This assay relies on an agonist-induced interaction between the nuclear receptor and its coactivator bringing two fluorogenic partners together resulting in the nuclear receptor ligand-dependent FRET.

[2] = test system: FXR target genes SHP, MRP-2, BSEP and PLTP in HEPG2-FXR cells; assay: Northern blot of FXR target genes in HEPG2-FXR cells; type: cell-based, human; conditions: for induction of FXR target genes: SHP, MRP-2, BSEP, PLTP; for concentration of maximal activation of FXR target genes: overnight treatment
Experimental: 20 μg total RNA was isolated using Trizol (Invitrogen) and used for Northern blot analysis. cDNA probes for human PLTP, SHP, MRP-2 and BSEP were prepared and hybridized to the blot. Blots were normalized by 36B4 expression as shown.
HepG2 or HT29-derived cell lines were typically cultured in medium containing superstripped FBS for 24 hr before the addition of a ligand or DMSO (vehicle) for an additional 24-48 hr. Total RNA was isolated using TRIzol reagent and was resolved (10 μg/lane) on a 1% agarose, 2.2 M formaldehyde gel, transferred to a nylon membrane (Hybond N^+; Amersham Biosciences, Inc.), and cross-linked to the membrane with UV light.
cDNA probes were radiolabeled with [α-^32P]dCTP using the highprime labeling kit (Amersham Biosciences, Inc.). Membranes were hybridized using the QuikHyb hybridization solution (Stratagene, La Jolla, Calif.) according to the manufacturer's protocol. Blots were normalized for variations of RNA loading by hybridization to a control probe, either, 18 S ribosomal cDNA, or the ribosomal protein 36B4. The RNA levels were quantitated using a PhosphorImager (ImageQuant software; Molecular Dynamics, Inc., Sunnyvale, Calif.) in addition to being exposed to X-ray film.
Total RNA was isolated and the expression of the FXR target genes SHP, MRP-2, BSEP and PLTP was measured by Northern blot analysis (see FIG. 4E).
Differences in efficacy of target gene induction between the liver and the intestinal cell systems may reflect the ability of the liver hepatocytes to mount a xenobotic response or cell specific permeability to the identified compounds. Modification of the ligands to overcome these effects may be made in order to increase the efficacy of these drugs in liver cell systems.

hPPARαγδ = assay: GAL4 chimeric NHR cross-reactivity assay; type: cell-based, human; conditions: 10 μM
Experimental: FIGS. 3A-3E collectively show the results of ligand activation of CV-1 cells co-transfected with a luciferase reporter gene with a variety of receptor expression constructs. […] FIGS. 3C-3E show the results of CV-1 cells transiently transfected with the indicated reporter constructs, treated with either DMSO or 10 μM of the compounds fexaramine (3C), fexarine (3D), fexarene (3E). Reporter activity was normalized to the internal control and the data plotted as fold activation relative to untreated cells. All transfections contained CMX-βgal as an internal control.
The expression plasmids pCMX, pCMX-LacZ, pCMX-mFXRFL, pCMX-hRXRFL, pCMX-GALDBD-rFXRLBD and other pCUX-GALDBD-NR LBDs (hRXRα, hPPARαγδ, mPXR, hPXR, hLXRα, HTRβ, hRARβ, mCAR, mERR3 and hVDR) have been described elsewhere (Blumberg et al. (1998). SXR, a novel steroid and xenobiotic-sensing nuclear receptor. Genes Dev. 12(20), 3195-205). The reporter plasmids pMH2004-TK-luc, pTKECRE*6-luc, pTKER-8*2-luc and pMRP-2-luc also have been described elsewhere. The hPLTP-luc promoter was kindly provided by Dr Dennis Dowhan and the hIBABP-luc promoter was created from a plasmid provided by Dr Philippe Besnard.
Cell-based transcriptional activation assays using chimeric nuclear hormone receptor (NHR) constructs were established to measure the selectivity of the compounds to FXR relative to other NHRs (Forman et al. (1995). Identification of a nuclear receptor that is activated by farnesol metabolites. Cell 81, 687-693). These assays used fusion proteins with the yeast GAL4 DNA binding domain connected to the ligand-binding domain (LBD) of NHRs. These constructs were co-transfected with a thymidine kinase C minimal promoter reporter vector containing four copies of the GAL4 binding site. Titration experiments were then performed using the identified compounds. […] Addition of RXR had no effect on the activation potential of fexaramine, fexarine, fexarene in this assay.
No activity was observed on other chimeric NHR constructs including hRXRα, hPPARαγδ, mPXR, hPXR, hLXRα, hTRβ, hRARβ, mCAR, mERR3 and hVDR (see FIGS. 3C-3E).

recruitment of SRC-1 peptide [1]	EC50 [1]	SMILES	induction of FXR target genes [2]	concentration of maximal activation of FXR target genes [2]	activity on chimeric hPPARαγδ constructs (hPPARαγδ)
Weaker recruitment	–	COC(=O)/C=C/c1cccc(N(Cc2ccc(-c3ccccc3OC)cc2)C(=O)C(C)C)c1 [SRI-1]	–	–	–
Weaker recruitment	–	COC(=O)/C=C/c1cccc(N(Cc2ccc(-c3ccc(C(C)(C)C)cc3)cc2)C(=O)C(C)C)c1 [SRI-2]	–	–	–

Further lines, the compound ahead of its results:

SMILES	recruitment of SRC-1 peptide [1]	EC50 [1]	induction of FXR target genes [2]	concentration of maximal activation of FXR target genes [2]	activity on chimeric hPPARαγδ constructs (hPPARαγδ)
COC(=O)/C=C/c1cccc(N(Cc2ccc(-c3ccc(N(C)C)cc3)cc2)C(=O)C2CCCCC2)c1 [fexaramine]	–	0.255 µM	most effective inducer	10 µM	No activity
COC(=O)/C=C/c1cccc(N(Cc2ccc(/C=C/c3ccccc3)cc2)C(=O)C2CCCCC2)c1 [fexarene]	–	~0.255 µM	strong induction	10 µM	No activity
COC(=O)/C=C/c1cccc(N(Cc2ccc(-c3ccc4c(c3)OCO4)cc2)C(=O)C2CCCCC2)c1 [fexarine]	–	0.222 µM	strong induction	10 µM	No activity
